Target: T1, NleB1 (Escherichia coli, UniProt Q8XBX8)
T1 construct: GST-EHEC-NleB1 in pET42a (GST/His tagged), expressed in E. coli BL21 (DE3), nickel purified; some tag cleavage noted
Settings: inhibitor; for % NleB1 inhibition (µM compound) / 10: 10 µM; for % NleB1 inhibition (µM compound) / 20: 20 µM; for % NleB1 inhibition (µM compound) / 40: 40 µM; for % NleB1 inhibition (µM compound) / 80: 80 µM; for % NleB1 inhibition (µM compound) / 160: 160 µM

Compound | % NleB1 inhibition (µM compound) / 10 | % NleB1 inhibition (µM compound) / 20 | % NleB1 inhibition (µM compound) / 40 | % NleB1 inhibition (µM compound) / 80 | % NleB1 inhibition (µM compound) / 160
O=c1cc(-c2ccccc2Cl)oc2c(NS(=O)(=O)c3cc(Cl)cc(Cl)c3O)ccc(O)c12 [KUC100066N] | 43.0% | 71.1% | 84.8% | 96.0% | 96.8%
Cc1cccc(C(=O)N2CCC(=O)N([C@H](COCc3ccc(Cl)cc3)Cc3ccccc3)CC2)c1 [KUC100143N] | 35.9% | 38.0% | 39.2% | 42.0% | 63.3%
O=C1CCN(S(=O)(=O)c2ccccc2)CCN1CCOCc1ccc(Cl)cc1 [KUC100988N] | 31.9% | 14.5% | 26.3% | 28.3% | 36.0%
O=C1CN(Cc2ccccc2)S(=O)(=O)c2ccccc21 [KUC101184N] | 2.9% | 18.5% | 23.8% | 33.3% | 44.7%
COc1ccc(C2CC(O)(c3ccccc3)Oc3c(C)ccc(C)c32)cc1 (centres unmarked) [KUC101437N] | 10.8% | 13.9% | 23.3% | 39.1% | 57.3%
COc1ccc(C(CCN2CCOCC2)c2c(OC)cc(OC)c3c2OC(=O)CC3c2ccc(OC)cc2)cc1 (centres unmarked) [KUC101459N] | 14.9% | 26.2% | 9.4% | 18.8% | 44.1%
CCCCCCC(=O)N1C/C=C\C(c2ccc(OC)cc2)N(Cc2ccc(F)cc2)C(=O)[C@@H]1Cc1ccccc1 (some centres unmarked) [KUC101608N] | 15.6% | 17.3% | 23.2% | 30.3% | 32.5%
CCCCCCCCN1[C@@H](CC(=O)OC)c2cc(F)ccc2S1(=O)=O [KUC101907N] | 23.0% | 22.1% | 22.4% | 29.9% | 42.2%
CCCCCCCCCCCCN1[C@@H](CC(=O)O)c2cc(C(F)(F)F)ccc2S1(=O)=O [KUC101994N] | 40.6% | 48.0% | 60.1% | 80.4% | 94.3%
COc1cccc(N2[C@@H](CC(=O)O)c3ccc(/C=C/C(=O)O)cc3S2(=O)=O)c1 [KUC102262N] | 27.6% | 34.2% | 35.9% | 41.7% | 46.5%
CCCCCCCCN1[C@@H](CC(=O)OC)c2ccc(/C=C/C(=O)OC)cc2S1(=O)=O [KUC102268N] | 25.3% | 20.8% | 27.1% | 33.3% | 27.9%
CC(C)CN1CCC(=O)N(CCC#N)CC1 [KUC102485N] | 16.0% | 23.1% | 17.6% | 19.0% | 20.8%
O=C(O)c1cc(-c2ccc(-c3c(-c4ccco4)noc3-c3ccccc3)cc2)nc2ccccc12 [KUC102644N] | 50.1% | 58.4% | 75.0% | 89.4% | 97.2%
O=S1(=O)CCOC[C@H](c2ccccc2)N1Cc1ccc(Cl)c(Cl)c1 [KUC102739N] | 16.3% | 16.2% | 25.3% | 35.0% | 45.5%
O=C(NC1CCC(=O)N(CCSc2ccccc2)CC1)OCc1ccccc1 (centres unmarked) [KUC102830N] | 16.9% | 20.9% | 21.9% | 25.7% | 38.2%
O=C1CCC[C@@H]2Cc3nc4ccc(O)cc4cc3[C@@H]3CCN1[C@H]23 [KUC103038N] | 26.7% | 35.2% | 34.4% | 47.9% | 76.1%
C=CCN1CC[C@@H](O)C(=C)S1(=O)=O [KUC103094N] | 19.8% | 23.8% | 19.2% | 18.2% | 18.0%

Compound | % NleB1 inhibition (µM compound) / 10 | % NleB1 inhibition (µM compound) / 20 | % NleB1 inhibition (µM compound) / 40 | % NleB1 inhibition (µM compound) / 80 | % NleB1 inhibition (µM compound) / 160
C[C@@H]1NC(=O)O[C@H]1c1ccco1 [KUC103195N] | 23.8% | 25.6% | 28.1% | 33.5% | 23.9%
O=C1CS(=O)(=O)N(Cc2cccc(F)c2)c2ccc(Br)cc21 [KUC103319N] | 32.5% | 37.2% | 49.0% | 68.8% | 81.7%
C[C@@H](NS(=O)(=O)c1cc(Cl)ccc1F)[C@H](O)c1ccccc1 [KUC103993N] | 27.5% | 31.8% | 31.8% | 34.5% | 37.0%
COc1cc(C(C)=O)ccc1OCc1cn(CC(=O)c2ccc(O)cc2)nn1 [KUC104076N] | 32.0% | 44.9% | 45.1% | 61.1% | 75.5%
O=C(Cn1cc(COc2ccccc2C(F)(F)F)nn1)c1ccc(O)cc1 [KUC104085N] | 36.1% | – | 51.8% | 63.6% | 78.4%
O=C(Cn1cc(COc2cccc([N+](=O)[O-])c2)nn1)c1ccc(O)cc1 [KUC104086N] | 24.5% | 24.5% | 34.2% | 32.8% | 50.5%
CC(=O)c1ccc(OCc2cn(CC(=O)c3ccc(O)cc3)nn2)c(F)c1 [KUC104088N] | 45.4% | 47.7% | 59.8% | 76.5% | 92.0%
Cc1cccc(C)c1OCc1cn(CC(=O)c2ccc(O)cc2)nn1 [KUC104090N] | 36.8% | 44.9% | 53.2% | 69.2% | 85.8%
O=C(Cn1cc(COc2c(F)c(F)cc(F)c2F)nn1)c1ccc(O)cc1 [KUC104092N] | 39.5% | 42.1% | 57.8% | 67.2% | 80.6%
CCCC(=O)c1ccc(OCc2cn(CC(=O)c3ccc(O)cc3)nn2)cc1 [KUC104099N] | 32.9% | 42.2% | 45.2% | 62.5% | 77.5%
CC(=O)Nc1ccc(OCc2cn(CC(=O)c3ccc(O)cc3)nn2)cc1 [KUC104101N] | 48.1% | 59.3% | 74.6% | 91.3% | 98.1%
CCC(=O)c1ccc(OCc2cn(CC(=O)c3ccc(O)cc3)nn2)cc1 [KUC104108N] | 21.0% | 35.3% | 49.4% | 67.7% | 88.0%
COc1ccc(OCc2cn(CC(=O)c3ccc(O)cc3)nn2)cc1 [KUC104109N] | 35.4% | 43.6% | 53.9% | 67.3% | 82.9%
O=Cc1cccc(OCc2cn(CC(=O)c3ccc(O)cc3)nn2)c1 [KUC104114N] | 31.8% | 42.3% | 57.2% | 76.5% | 92.0%
COc1ccc2cc([C@H](C)C(=O)OCc3cn(CC(=O)c4ccc(O)cc4)nn3)ccc2c1 [KUC104115N] | 40.2% | 44.0% | 48.2% | 61.4% | 78.6%
CC1C(=O)N(Cc2cn(CCC3OCCCO3)nn2)CCS(=O)(=O)N1Cc1ccc(-c2cccc(N(C)C)c2)cc1 (centres unmarked) [KUC104889N] | 26.6% | 28.9% | 29.5% | 35.9% | 44.5%

Reference: PMC6305410, “High-Throughput Screening for Bacterial Glycosyltransferase Inhibitors” (Frontiers in Cellular and Infection Microbiology, 2018)
